Test results from paper PMC4967449, “The role of acid-base imbalance in statin-induced myotoxicity” (Translational Research, 2016).
Counter-ions that a name gives are not always drawn. Like-named read-outs stand apart in the source and are kept apart here.

Assays:
[1] = Hydrolysis of the lactone form of statins in phosphate buffer saline of modified pH; assay type: physicochemical; conditions: phosphate buffer saline (PBS), 37°C
Method: (§1) The pH of DMEM culture medium was adjusted to the target values (6.8–7.8) by adding an appropriate volume of either 1.0 N HCl or NaOH to a medium containing 20 mmol/L 4-2-hydroxyethyl-1-piperazineethanesulfonic acid (HEPES) buffer. The pH was measured at incubation temperature (37°C) by Mettler Toledo T50 pH titrator. […] After equilibration, minor adjustment in pH was occasionally required to reach the desired final pH.[35] Maintaining medium under constant CO2 environment of 5% stabilizes the pH through CO2-HCO3^− equilibrium.[36] The pH of phosphate buffer saline (PBS) was adjusted to the target values (6.8–7.8) in the same way without the need for equilibration.
(§2) The interconversion of the lactone and hydroxy acid forms of simvastatin and pravastatin was investigated by incubating tested compounds with human plasma, PBS, and DMEM culture medium of defined pH values at 37°C for a predetermined period of time. […] Human plasma and PBS samples were incubated in C25 classic incubator shaker (New Brunswick Scientific). For DMEM samples, CO2 supply was maintained at 5% throughout experiment in a tissue culture incubator. The pH of different matrices was adjusted to simulate physiological pH, acidosis, and alkalosis as described previously. After incubation, the interconversion reaction was stopped at predetermined time points by adding 50 μL of ice-cold ammonium acetate buffer (100 mmol/L, pH 4.5) to 100 μL of tested samples.[14] Six replicates were tested at each pH level, and the concentrations of parent and corresponding forms were measured by fully validated HPLC analytical methods.
(§3) Fully validated HPLC-UV methods were used to determine the concentrations of the lactone and the corresponding hydroxy acid forms of simvastatin and pravastatin after interconversion studies in human plasma, PBS, and DMEM culture medium of different pH. Samples for HPLC analysis were prepared by protein precipitation followed by liquid-liquid extraction. A 100 μL of human plasma or DMEM samples were pipetted into 1.5 mL Eppendorf tubes, and 50 μL of ammonium acetate buffer (100 mmol/L, pH 4.5) along with 10 μL of internal standard solution (4,4-dichlorodiphenyltrichloroethane [DDT] or griseofulvin 100 μg/mL for simvastatin and pravastatin containing samples, respectively) was added, and samples were vortex mixed for 30 seconds. Proteins were precipitated by the addition of 300 μL of chilled ACN, and samples were vortex mixed for 1 minute and then centrifuged at 900g for 10 minutes at 4°C. After centrifugation, the ACN layer was transferred into new glass test tubes, and 3 mL of methyl tert-butyl ether were added to each sample, vortex mixed for 10 minutes, and centrifuged at 1,615g for 10 minutes at 4°C. Finally, the upper organic layers were separated using glass Pasteur pipette, transferred into new glass tubes, and the contents of the tubes were evaporated to dryness using Techne Sample Concentrator (Bibby Scientific Ltd, UK). The dry residues were reconstituted with 100 μL of the mobile phase, vortex mixed, and placed into appropriate HPLC vials. Samples from PBS were extracted in the same way with one exception that the protein precipitation step was skipped.
(§4) HPLC analysis was performed using Waters Alliance 2965 separation module equipped with Waters 996 Photodiode Array Detector and integrated autosampler. System control and data processing were performed using Empower software. Chromatographic separation was achieved by ACE Excel Super C18 column (100 × 3 mm, 3 μm) under isocratic conditions with mobile phase consisting of ACN: 5 mmol/L ammonium acetate buffer, pH 4.5 (73:27 and 55:45, v/v for simvastatin and pravastatin samples, respectively). The flow rate was set at 0.4 mL/min for simvastatin and 0.3 mL/min for pravastatin samples. Samples temperature was kept at 4°C, and column temperature was set at 40°C. Chromatographic separation was monitored by photodiode array detector at 238 nm with an injection volume of 20 μL.

[2] = Interconversion / hydrolysis of the lactone form of statins in human plasma of modified pH; assay type: in vitro ADME; conditions: for proportion of lactone converted to the hydroxy acid form: 50 μmol/L, 24 hours at 37°C; for half-life at 50 μmol/L: 37°C
Method: as §2, §3
as §4, with “40°C.” for “40°C. Chromatographic separation was monitored by photodiode array detector at 238 nm with an injection volume of 20 μL.”

[3] = Hydrolysis of the lactone form of statins in DMEM culture medium of modified pH; assay type: physicochemical; conditions: 37°C
Method: as §1, §2
Fully validated HPLC-UV methods were used to determine the concentrations of the lactone and the corresponding hydroxy acid forms of simvastatin and pravastatin after interconversion studies in human plasma, PBS, and DMEM culture medium of different pH. Samples for HPLC analysis were prepared by protein precipitation followed by liquid-liquid extraction. A 100 μL of human plasma or DMEM samples were pipetted into 1.5 mL Eppendorf tubes, and 50 μL of ammonium acetate buffer (100 mmol/L, pH 4.5) along with 10 μL of internal standard solution (4,4-dichlorodiphenyltrichloroethane [DDT] or griseofulvin 100 μg/mL for simvastatin and pravastatin containing samples, respectively) was added, and samples were vortex mixed for 30 seconds. Proteins were precipitated by the addition of 300 μL of chilled ACN, and samples were vortex mixed for 1 minute and then centrifuged at 900g for 10 minutes at 4°C. […]
HPLC analysis was performed using Waters Alliance 2965 separation module equipped with Waters 996 Photodiode Array Detector and integrated autosampler. […] Chromatographic separation was monitored by photodiode array detector at 238 nm with an injection volume of 20 μL.

[4] = tested on: undifferentiated C2C12 cells; test: Cellular uptake of statins by undifferentiated C2C12 cells in medium of altered pH; assay type: cell-based, mouse; conditions: 1 μmol/L, LC MS/MS
Method: (§5) Samples temperature was kept at 4°C, and column temperature was set at 40°C.

[5] = tested on: differentiated C2C12 cells; test: Cellular uptake of statins by differentiated C2C12 cells in medium of altered pH; assay type: cell-based, mouse; conditions: for intracellular levels of pravastatin: 1 μmol/L, LC MS/MS
Method: as §5

[6] = tested on: undifferentiated C2C12 cells; test: MTT cytotoxicity in undifferentiated C2C12 cells in medium of different pH; assay type: cell-based; conditions: Mus musculus, 72 hours, read-out: IC50 values of statins
Method: (§6) The effect of medium pH alteration on the cytotoxicity of statins was evaluated by MTT and LDH cytotoxicity assays. Both undifferentiated and differentiated C2C12 cells were used in these studies. […] Before starting treatment, the medium was replaced by a fresh one with modified pH (6.8, 7.4, and 7.8). […] Positive control samples with 100% cell death were obtained by treating cells with 1% Triton X-100. Produced formazan crystals were dissolved in DMSO, and the absorbance was measured at 570 nm using EnVision Multilabel Plate Reader (PerkinElmer). Results were expressed as percentage of the control, and IC50 was calculated using prism 6 (GraphPad Software Inc).

[7] = tested on: differentiated C2C12 cells; test: MTT cytotoxicity in differentiated C2C12 cells in medium of different pH; assay type: cell-based; conditions: Mus musculus, acidic medium (pH 6.8), 72 hours, read-out: IC50 values of statins
Method: as §6

Question: With CC[C@H](C)C(=O)O[C@H]1C[C@H](O)C=C2C=C[C@H](C)[C@H](CC[C@@H]3C[C@@H](O)CC(=O)O3)[C@H]21 [PVL, pravastatin lactone] as the compound, how does the half-life at 50 μmol/L ([1]; pH 6.8, 50 μmol/L) read?
Answer: 1270 ± 105 min

Question: And the half-life at 50 μmol/L ([1]; pH 7.0, 50 μmol/L)?
Answer: 778 ± 82.8 min

Question: What about the half-life at 50 μmol/L ([1]; pH 7.2, 50 μmol/L) of the same compound?
Answer: 562 ± 94.2 min

Question: And the half-life at 50 μmol/L ([1]; pH 7.4, 50 μmol/L)?
Answer: 413 ± 24.6 min

Question: And the half-life at 50 μmol/L ([1]; pH 7.6, 50 μmol/L)?
Answer: 335 ± 29.4 min

Question: And the half-life at 50 μmol/L ([1]; pH 7.8, 50 μmol/L)?
Answer: 299 ± 26.4 min

Question: And the “proportion of lactone converted to the hydroxy acid form” value ([2]; alkaline pH)?
Answer: ~99%

Question: And the half-life at 50 μmol/L ([2]; pH 6.8, 50 μmol/L)?
Answer: 530 ± 18.6 min

Question: And the half-life at 50 μmol/L ([2]; pH 7.0, 50 μmol/L)?
Answer: 443 ± 13.2 min

Question: What about the half-life at 50 μmol/L ([2]; pH 7.2, 50 μmol/L) of the same compound?
Answer: 397 ± 57 min

Question: And the half-life at 50 μmol/L ([2]; pH 7.4, 50 μmol/L)?
Answer: 411 ± 32.4 min

Question: And the “proportion of lactone converted to the hydroxy acid form” value ([2]; physiological pH)?
Answer: ~98%

Question: What about the half-life at 50 μmol/L ([3]; pH 6.8, 50 μmol/L) of the same compound?
Answer: 1040 ± 240 min

Question: And the half-life at 50 μmol/L ([3]; pH 7.2, 50 μmol/L)?
Answer: 713 ± 163 min

Question: And the half-life at 50 μmol/L ([3]; pH 7.4, 50 μmol/L)?
Answer: 583 ± 85.2 min

Question: And the half-life at 50 μmol/L ([3]; pH 7.8, 50 μmol/L)?
Answer: 640 ± 48.6 min

Question: What about the “intracellular levels of pravastatin” value [4] of the same compound?
Answer: below the limit of quantification

Question: And the “intracellular levels of pravastatin” value [5]?
Answer: below the limit of quantification

Question: With CC[C@H](C)C(=O)O[C@H]1C[C@H](O)C=C2C=C[C@H](C)[C@H](CC[C@@H](O)C[C@@H](O)CC(=O)O)[C@H]21 [PVA, pravastatin hydroxy acid sodium] as the compound, how does the “intracellular levels of pravastatin” value [4] read?
Answer: below the limit of quantification

Question: And the “intracellular levels of pravastatin” value [5]?
Answer: below the limit of quantification

Question: Which results are given for CCC(C)(C)C(=O)O[C@H]1C[C@@H](C)C=C2C=C[C@H](C)[C@H](CC[C@@H](O)C[C@@H](O)CC(=O)O)[C@H]21 [SVA, simvastatin hydroxy acid ammonium salt]?
Answer: increase in uptake at acidic extracellular pH ([5]; 1 μmol/L SVA): more than 2 folds; reduction in uptake under alkaline pH ([5]; 1 μmol/L SVA): approximately 50%; IC50 ([6]; acidic medium (pH 6.8)): 2.22 ± 0.04 µM; IC50 ([6]; alkaline medium (pH 7.8)): 16.9 ± 0.48 µM; IC50 ([6]; neutral medium (pH 7.4)): 4.35 ± 0.09 µM; IC50 [7]: 65.4 ± 2.69 µM
